Patent US20100137248A1, “BORON-CONTAINING COMPOUNDS, USES AND PREPARATION THEREOF” (DINOTEC INC., priority 2007, published 2010)

Test system: pain and/or inflammation in volunteers
Test: Tests on various subjects using Composition 2 (pain and/or inflammation)
Format: in vivo
Conditions: past medication of volunteers; testimony
Method: Composition 2 was tested on several subjects so as to verify its activity as anti-inflammatory agent and/or analgesic. As it can be seen from Table 1, test subjects having various inflammations or pain have been treated with Composition 2. In each case, a small amount of Composition 2, in the form of a cream, was applied to inflamed skin area by means of a short gentle rub.

CC(=O)Oc1ccccc1C(=O)O [Aspirin, acetylsalicylic acid]
gastric side effect reported by volunteers: severe gastric burning sensation
